# Read-outs that look alike come from different tables or passages of the source.
# T1: zebrafish monoamine oxidase (zMAO) (Danio rerio, UniProt Q6NSN2)
# T1 sequence (Q6NSN2 1-522): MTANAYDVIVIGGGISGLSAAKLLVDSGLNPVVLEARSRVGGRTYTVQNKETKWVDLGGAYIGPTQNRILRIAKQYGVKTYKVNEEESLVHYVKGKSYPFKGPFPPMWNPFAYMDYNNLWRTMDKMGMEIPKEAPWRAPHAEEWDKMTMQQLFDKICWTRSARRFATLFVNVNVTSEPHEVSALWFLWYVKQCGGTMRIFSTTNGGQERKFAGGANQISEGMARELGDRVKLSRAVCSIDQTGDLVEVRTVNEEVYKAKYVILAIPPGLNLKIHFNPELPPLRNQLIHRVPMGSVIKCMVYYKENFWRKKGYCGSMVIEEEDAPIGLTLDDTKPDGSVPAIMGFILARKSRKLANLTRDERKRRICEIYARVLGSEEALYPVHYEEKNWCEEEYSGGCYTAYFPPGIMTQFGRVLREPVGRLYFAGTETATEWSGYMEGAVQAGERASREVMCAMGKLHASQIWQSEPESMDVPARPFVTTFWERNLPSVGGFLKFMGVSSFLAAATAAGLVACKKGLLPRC
# T2: hMAO B (Homo sapiens, UniProt P27338)
# T2 sequence (P27338 1-520): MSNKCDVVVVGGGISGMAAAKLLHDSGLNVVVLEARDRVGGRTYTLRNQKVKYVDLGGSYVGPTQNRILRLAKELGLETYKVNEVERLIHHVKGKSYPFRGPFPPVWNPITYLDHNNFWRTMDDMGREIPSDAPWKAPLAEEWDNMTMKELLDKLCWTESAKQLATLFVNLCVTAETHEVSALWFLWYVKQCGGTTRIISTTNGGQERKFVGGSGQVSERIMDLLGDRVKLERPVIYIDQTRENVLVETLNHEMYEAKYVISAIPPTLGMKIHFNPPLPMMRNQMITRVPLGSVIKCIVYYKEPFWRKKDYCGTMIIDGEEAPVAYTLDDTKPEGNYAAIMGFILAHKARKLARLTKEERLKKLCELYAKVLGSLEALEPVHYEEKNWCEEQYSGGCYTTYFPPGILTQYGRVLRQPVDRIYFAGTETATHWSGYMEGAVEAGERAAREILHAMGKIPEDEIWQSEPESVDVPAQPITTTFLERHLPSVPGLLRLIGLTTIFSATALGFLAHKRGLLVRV
# T3: hMAO A (Homo sapiens, UniProt P21397)
# T3 sequence (P21397 1-527): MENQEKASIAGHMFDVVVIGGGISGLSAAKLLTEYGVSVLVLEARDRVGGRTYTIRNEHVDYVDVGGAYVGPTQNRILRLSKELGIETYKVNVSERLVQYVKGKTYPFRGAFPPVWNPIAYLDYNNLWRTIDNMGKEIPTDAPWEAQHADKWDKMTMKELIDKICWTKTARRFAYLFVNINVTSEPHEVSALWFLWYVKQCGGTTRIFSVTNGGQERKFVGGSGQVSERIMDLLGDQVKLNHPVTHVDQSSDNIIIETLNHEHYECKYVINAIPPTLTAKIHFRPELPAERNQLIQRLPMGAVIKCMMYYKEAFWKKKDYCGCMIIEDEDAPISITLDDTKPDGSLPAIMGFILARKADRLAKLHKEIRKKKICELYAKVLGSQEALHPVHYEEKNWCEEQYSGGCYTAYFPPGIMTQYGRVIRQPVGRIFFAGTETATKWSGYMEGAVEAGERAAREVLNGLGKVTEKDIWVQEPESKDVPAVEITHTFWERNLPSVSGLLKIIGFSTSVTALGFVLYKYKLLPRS
# Experiments:
# [1] = target: T1, zebrafish monoamine oxidase (zMAO); assay: Reversible inhibition of zMAO with kynuramine as substrate; type: biochemical
# [2] = target: T1, zebrafish monoamine oxidase (zMAO); assay: Steady-state kinetics of zMAO-catalyzed amine substrate oxidation; type: biochemical; details: for ^Dkcat: deuterium kinetic isotope effect; for kcat (H): air saturation (240 μM O2); for kcat (D): α,α-2[H] benzylamine analogue
# hMAO B [3] = target: T2, hMAO B; details: cited from earlier work
# hMAO A [4] = target: T3, hMAO A; details: cited from earlier work; for Ki: hMAO A
# hMAO A [5] = target: T3, hMAO A; details: ref Li, cited from earlier work
# hMAO B [6] = target: T2, hMAO B; assay: Reversible inhibition of hMAO B; type: biochemical; details: no reference mark, indole analogues tested up to 100 μM
# hMAO B [7] = target: T2, hMAO B; details: cited from earlier work; remark: listed apart in the source
# [8] = substrate: NCCC(=O)c1ccccc1N; assay: Steady-state kinetics of zMAO-catalyzed amine substrate oxidation; type: biochemical, Danio rerio; details: other: zMAO, 25 °C, pH 7.4
# [9] = substrate: NCCCCc1ccccc1; assay: as above; type: biochemical, Danio rerio; details: other: zMAO, 25 °C, pH 7.4
# [10] = substrate: NCCc1ccc(O)cc1; assay: as above; type: biochemical, Danio rerio; details: other: zMAO, 25 °C, pH 7.4
# [11] = substrate: NCc1ccccc1; assay: as above; type: biochemical, Danio rerio; details: other: zMAO, para-substituted benzylamine; pH 7.4; 25.0 °C
# [12] = substrate: NCCc1ccc(O)c(O)c1; assay: purified protein, by the assay type; details: other: zMAO, 25 °C, pH 7.4
# [13] = zMAO, hMAO B specific inhibitors (Table 3), kynuramine substrate
# [14] = ref Nandigama and Edmondson (2000)
# [15] = zMAO, hMAO A specific inhibitors (Table 2), kynuramine substrate
# [16] = read-out: Km(H), zMAO, para-substituted benzylamine
# [17] = zMAO, para-substituted benzylamine
molecule,measurement,setting,value
"C(C=Cc1ccccc1)=Cc1ccccc1 [1,4-Diphenyl-1,3-Butadiene]",Ki,[1]; [13],No inhibition
"C(=CCc1ccccc1)Cc1ccccc1 [1,4-Diphenyl-2-Butene]",Ki,[1]; [13],No inhibition
NCc1cccnc1 [3-Aminomethylpyridine],Substrate behaviour,[2]; zMAO,Not a Substrate
same,kcat,"hMAO B [3]; ref Li, (2006)",223 ±5 ^c min^−1
same,Ki,"hMAO A [4]; competitive inhibitor, ref Li, (2006)",5200 µM
Cn1c(=O)c2c(nc(C=Cc3cccc(Cl)c3)n2C)n(C)c1=O [8-(3-Chlorostyryl)-caffeine],Ki,[1],2.4 ± 0.6 µM
NCCc1ccc(O)c(O)c1 [Dopamine],kcat,"[2]; zMAO, 25 °C, pH 7.4",4.03 s⁻¹
same,Km,hMAO A [5]; et al. (2002),240 ± 42 µM
same,kcat,hMAO A [5]; et al. (2002),71 ±4 ^a min^−1
same,Km,hMAO B [3]; [14],128 ± 15 µM
same,kcat,hMAO B [3]; [14],65 ±12 ^b min^−1
"CC(C)=CCC/C(C)=C/CC/C(C)=C/CO [Farnesol, trans-trans-farnesol]",Ki,[1]; [13],No inhibition
Cc1nccc2c1[nH]c1ccccc12 [Harmane],Ki,[1],0.13 ± 0.02 µM
NCCC(=O)c1ccccc1N [Kynuramine],kcat,"[2]; zMAO, 25 °C, pH 7.4",1.25 s⁻¹
same,kcat,hMAO A [5]; et al. (2002),125 ±8 ^a min^−1
same,kcat,hMAO B [3]; [14],96 ±11 ^b min^−1
CS(=O)(=O)O.Cc1ccc2c(c1)c1c3n2CCNC3CCC1 (stereo not drawn) [Pirlindole Mesylate],Ki,[1]; [15],2.4 ± 0.4 µM
same,Ki,hMAO B [6],No Inhibition
same,Ki,"hMAO A [4]; ref Wang, et al. (2009)",0.92 ± 0.04 µM
C[C@H](NCc1ccc(OCc2cccc(F)c2)cc1)C(N)=O [Safinamide],Ki,[1]; [13],No inhibition
NCCc1c[nH]c2ccc(O)cc12 [Serotonin],Km,hMAO A [5]; et al. (2002),295 ± 46 µM
same,Km,hMAO B [3]; [14],2270 ± 310 µM
CS(=O)(=O)O.c1cc2c(cc1C1CCCCC1)c1c3n2CCNC3CCC1 (stereo not drawn) [Tetrindole Mesylate],Ki,[1]; [15],34.1 ± 2 µM
same,Ki,hMAO B [6],No Inhibition
same,Ki,"hMAO A [4]; ref Wang, et al. (2009)",5.3 ± 0.2 µM
NCCc1ccc(O)cc1 [Tyramine],kcat,"[2]; zMAO, 25 °C, pH 7.4",7.78 s⁻¹
same,kcat,"hMAO A [5]; (2006), listed as tyramine",182 min⁻¹
same,Km,hMAO A [5]; (2006),427 ± 18 µM
same,kcat,hMAO A [5]; (2006),182 ±26 ^c min^−1
C[C@H](N)Cc1ccccc1 [d-Amphetamine],Mode of inhibition,[1]; zMAO catalyzed kynuramine oxidation,uncompetitive inhibitor
same,Ki,[1]; [15],38 ± 5.1 µM
same,Mode of inhibition,"hMAO A [4]; human MAO A, ref Vintém et al., 2005",competitively inhibits
same,Ki,"hMAO B [7]; hMAO B, ref Li, (2006)",280 ± 10 µM
same,Mode of inhibition,"hMAO B [7]; human MAO B, depending on the substrate, ref Pearce and Roth, 1985",either as a competitive or as a mixed inhibitor
NCc1ccc(Br)cc1 [p-Br],Km,[2]; [16],103 ± 20 µM
same,^Dkcat,[2]; zMAO,8.2 ± 0.7 min⁻¹
same,kcat (H),[2]; [17],0.667 ± 0.05 s⁻¹
same,kcat (D),[2]; zMAO,0.0813 ± 0.00283 s⁻¹
NCc1ccc(C(F)(F)F)cc1 [p-CF3],Km,[2]; [16],115 ± 36 µM
same,^Dkcat,[2]; zMAO,4.2 ± 0.3 min⁻¹
same,kcat (H),[2]; [17],1.57 ± 0.12 s⁻¹
same,kcat (D),[2]; zMAO,0.375 ± 0.025 s⁻¹
NCc1ccc(Cl)cc1 [p-CI],Km,[2]; [16],94 ± 10 µM
same,^Dkcat,[2]; zMAO,5.9 ± .2 min⁻¹
same,kcat (H),[2]; [17],0.583 ± 0.017 s⁻¹
same,kcat (D),[2]; zMAO,0.0983 ± 0.00283 s⁻¹
NCc1ccc(C(=O)O)cc1 [p-Carboxybenzylamine],Km,"[2]; zMAO, 25 °C, pH 7.4",76 ± 8 µM
same,kcat,"[2]; zMAO, 25 °C, pH 7.4",0.0883 ± 0.0033 s⁻¹
NCc1ccc(F)cc1 [p-F],Km,[2]; [16],161 ± 8 µM
same,^Dkcat,[2]; zMAO,6.7 ± 0.2 min⁻¹
same,kcat (H),[2]; [17],0.248 ± 0.005 s⁻¹
same,kcat (D),[2]; zMAO,0.0372 ± 0.00083 s⁻¹
"NCc1ccccc1 [p-H, benzylamine]",Kd,[2],3.3 µM
same,^Dkcat,[2]; zMAO,2.0 ± 0.2 min⁻¹
same,kcat (D),[2]; zMAO,0.039 ± 0.00333 s⁻¹
COc1ccc(CN)cc1 [p-MeO],Km,[2]; [16],55.5 ± 4.1 µM
same,^Dkcat,[2]; zMAO,5.9 ± 0.7 min⁻¹
same,kcat (H),[2]; [17],0.138 ± 0.012 s⁻¹
same,kcat (D),[2]; zMAO,0.0237 ± 0.00083 s⁻¹
Cc1ccc(CN)cc1 [p-Me],Km,[2]; [16],67.8 ± 4.1 µM
same,^Dkcat,[2]; zMAO,6.4 ± 0.2 min⁻¹
same,kcat (H),[2]; [17],0.115 ± 0.0017 s⁻¹
same,kcat (D),[2]; zMAO,0.018 ± 0.00033 s⁻¹
CC(C)(C)c1ccc(CN)cc1 [p-t-Butyl],Km,[2]; [16],48 ± 6 µM
same,^Dkcat,[2]; zMAO,2.0 ± 0.1 min⁻¹
same,kcat (H),[2]; [17],0.115 ± 0.0033 s⁻¹
same,kcat (D),[2]; zMAO,0.0567 ± 0.0033 s⁻¹
zebrafish monoamine oxidase (zMAO) (Danio rerio) (protein) MTANAYDVIVIGGGISGLSAAKLLVDSGLNPVVLEARSRVGGRTYTVQNKETKWVDLGGAYIGPTQNRILRIAKQYGVKTYKVNEEESLVHYVKGKSYPFKGPFPPMWNPFAYMDYNNLWRTMDKMGMEIPKEAPWRAPHAEEWDKMTMQQLFDKICWTRSARRFATLFVNVNVTSEPHEVSALWFLWYVKQCGGTMRIFSTTNGGQERKFAGGANQISEGMARELGDRVKLSRAVCSIDQTGDLVEVRTVNEEVYKAKYVILAIPPGLNLKIHFNPELPPLRNQLIHRVPMGSVIKCMVYYKENFWRKKGYCGSMVIEEEDAPIGLTLDDTKPDGSVPAIMGFILARKSRKLANLTRDERKRRICEIYARVLGSEEALYPVHYEEKNWCEEEYSGGCYTAYFPPGIMTQFGRVLREPVGRLYFAGTETATEWSGYMEGAVQAGERASREVMCAMGKLHASQIWQSEPESMDVPARPFVTTFWERNLPSVGGFLKFMGVSSFLAAATAAGLVACKKGLLPRC,Km,[8],58 ± 5 µM
same,kcat,[8],1.25 ± 0.0333 s⁻¹
same,Km,[9],185 ± 17 µM
same,kcat,[9],2.07 ± 0.0667 s⁻¹
same,kcat/Km,[9],11200 M⁻¹ s⁻¹
same,Km,[10],18 ± 3 µM
same,kcat,[10],7.78 ± 0.333 s⁻¹
same,Km,[11],82.2 ± 9.0 µM
same,kcat,[11],0.0783 ± 0.0017 s⁻¹
same,Km,[12],88 ± 14 µM
same,kcat,[12],4.03 s⁻¹

# Reference: article PMC3071876 (Comparative biochemistry and physiology. Part B, …, 2011)
